According to patent US5424204A, “Method for stabilizing glucose 6-phosphate dehydrogenase with hydroxylamines, aldehyde scavengers, dimethylthiocarbamoyl chloride or 2-(2-aminoethylamino) ethanol” (Kyowa Medex Co., Ltd., priority 1993, dated 1995):
Where a name gives a salt, the structure may show the parent alone.

Tested on: glucose 6-phosphate dehydrogenase
Test: Stabilization of glucose 6-phosphate dehydrogenase in a reagent for measuring the activity of creatine kinase (residual activity after storage)
Format: biochemical
Conditions: 10 mM additive in reagent solution 1 (pH 6.6), activity immediately after preparation = 100%; for Residual activity after 3 months (%): stored at 10° C. for 3 months; for Residual Activity after 12 months (%): stored at 10° C. for 12 months

SMILES	Residual activity after 3 months (%)	Residual Activity after 12 months (%)
Cl.NO [Compound I-1, hydroxylamine hydrochloride]	100.2	85.9
NO.NO.O=S(=O)(O)O [Compound I-2, hydroxylamine sulfate]	99.8	88.7
NO.O=C(O)C(=O)O [Compound I-3, hydroxylamine oxalate]	98.2	89.2
Cl.NOCC(=O)O [Compound I-4, carboxymethoxylamine hydrochloride]	99.9	88.9
Cl.NOCc1ccccc1 [Compound I-5, O-benzylhydroxylamine hydrochloride]	96.8	78.9
O=C(c1ccccc1)N(O)c1ccccc1 [Compound I-6, N-benzoyl-N-phenylhydroxylamine]	80.5	30.3
Cc1ccccc1N(O)C(=O)c1ccccc1 [Compound I-7, N-benzoyl-N-(2-methylphenyl)hydroxylamine]	81.5	25.6
O=C(C=Cc1ccccc1)N(O)c1ccccc1 [Compound I-8, N-cinnamoyl-N-phenylhydroxylamine]	90.4	44.5
CNO [Compound I-9, N-methylhydroxylamine]	100.1	80.3
CON [Compound I-10, O-methylhydroxylamine]	99.7	82.3
Cc1cccc(N(O)C(=O)C=Cc2ccccc2)c1C [Compound I-11, N-cinnamoyl-N-2,3-xylylhydroxylamine]	79.6	23.6
CC(C)(C)NO [Compound I-12, N-(tert-butyl)hydroxylamine]	75.5	22.2
Cl.ONC1CCCCC1 [Compound I-13, N-cyclohexylhydroxylamine hydrochloride]	92.1	80.2
NNC(=O)c1ccccc1 [II-1, benzoylhydrazine]	100.1	87.6
NNC(=O)C(=O)NN [II-3, oxalyldihydrazide]	88.5	65.2
NNC(=O)c1cccnc1 [II-4, nicotinic acid hydrazide]	70.3	38.5
CCOC(=O)CNN [II-5, ethylhydrazinoaceate hydrochloride]	75.4	28.3
Br.NNC1=NCCN1 [II-6, 2-hydrazino-2-imidazoline hydrobromide]	89.2	58.5
NNC(=O)c1cc2ccccc2cc1O [II-7, 3-hydroxy-2-naphthoenic acid hydrazide]	89.7	60.3
COC(=O)NN [II-8, methyl carbazate]	99.8	86.5
CC(=O)NNC(N)=S [II-9, 1-acetylthiosemicarbazide]	82.3	45.6
CCOC(=O)NN [II-12, ethyl carbazate]	102.2	88.3
CCNC(=S)NN [II-13, 4-ethyl-3-thiosemicarbazide]	90.2	62.1
NNC(=O)Nc1ccccc1 [II-14, 4-phenylsemicarbazide]	99.9	86.5
CC(C)NNC(=O)c1ccncc1 [II-15, iproniazide]	65.8	20.1
CC(C)=NNC(N)=S [II-16, acetone thiosemicarbazone]	79.8	41.5
NC(=S)C(N)=S [II-17, dithiooxyamide]	75.2	32.3
CN(C)C(=S)Cl [III, dimethylthiocarbamoyl chloride]	80.3	43.2
NCCNCCO [IV, 2-(2-aminoethylamino) ethanol]	98.7	81.1
